Laboratory results as given in publication PMC10986521 (Microbiology Spectrum, 2024).

Assays:
FMDV 3Cpro [1] = molecular target: T1, FMDV 3Cpro (Foot-and-mouth disease virus A, UniProt A0A097I315); experiment: biochemical; parameters: species or system FMDV A/IND287/96 strain (serotype A); settings: FRET assay (IC50)
FMDV 3Cpro [2] = molecular target: T1, FMDV 3Cpro; experiment: cell-based; parameters: species or system FMDV A/IND287/96 strain; settings: Cell-based assay (EC50)
in vitro = settings: human
FMDV = settings: cited from earlier work

Row | Compound | IC50 (FMDV 3Cpro [1]) [nM] | EC50 (FMDV 3Cpro [2]) [nM] | CC50 (in vitro) [nM] | replication of FMDV in cell culture via inhibiting 3Cpro (FMDV)
1 | CC(C)C[C@H](NC(=O)OC[C@@H]1C[C@H]1C1CCCCC1)C(=O)N[C@H](C=O)C[C@H]1CCNC1=O [Compound C15c] | 380 ± 110 | 450 ± 50 | > 50000 | 
2 | CC(C)C[C@H](NC(=O)OC[C@@H]1C[C@H]1C1CCCCC1)C(=O)N[C@@H](C[C@H]1CCNC1=O)C(O)S(=O)(=O)O (stereo partly drawn) [Compound C15d] | 290 ± 80 | 500 ± 110 | > 50000 | 
3 | CC(C)C[C@H](NC(=O)OC[C@@H]1C[C@H]1CC1CCCCC1)C(=O)N[C@H](C=O)C[C@H]1CCNC1=O [Compound C16c] | 360 ± 90 | 900 ± 60 | > 50000 | 
4 | CC(C)C[C@H](NC(=O)OC[C@@H]1C[C@H]1CC1CCCCC1)C(=O)N[C@@H](C[C@H]1CCNC1=O)C(O)S(=O)(=O)O (stereo partly drawn) [Compound C16d] | 330 ± 40 | 1210 ± 480 | > 50000 | 
5 | CC(C)C[C@H](NC(=O)OC[C@@H]1C[C@H]1C1CCC(F)(F)CC1)C(=O)N[C@H](C=O)C[C@H]1CCNC1=O [Compound C17c] | 650 ± 70 | > 10000 | > 50000 | 
6 | CC(C)C[C@H](NC(=O)OC[C@@H]1C[C@H]1C1CCC(F)(F)CC1)C(=O)N[C@@H](C[C@H]1CCNC1=O)C(O)S(=O)(=O)O (stereo partly drawn) [Compound C17d] | 750 ± 90 | > 10000 | > 50000 | 
7 | CC(C)C[C@H](NC(=O)OCC(C)(C)Sc1ccccc1)C(=O)N[C@@H](C[C@@H]1CCNC1=O)C(=O)C(=O)NC1CC1 [Compound D1e] | 3750 ± 70 | 5000 ± 280 | > 50000 | 
8 | CC(C)C[C@H](NC(=O)OCC(C)(C)Sc1ccccc1)C(=O)N[C@H](C#N)C[C@@H]1CCNC1=O [Compound D1f] | > 25000 | > 10000 | > 50000 | 
9 | [2H]C([2H])(OC(=O)N[C@@H](CC(C)C)C(=O)N[C@H](C=O)C[C@@H]1CCNC1=O)C(C)(C)Sc1ccccc1 [Compound D2c] | 1520 ± 20 | 2500 ± 420 | > 50000 | 
10 | [2H]C([2H])(OC(=O)N[C@@H](CC(C)C)C(=O)N[C@@H](C[C@@H]1CCNC1=O)C(O)S(=O)(=O)[O-])C(C)(C)Sc1ccccc1.[Na+] (stereo partly drawn) [Compound D2d] | 1150 ± 70 | 2910 ± 430 | > 50000 | 
11 | CC(C)C[C@H](NC(=O)OCC(C)(C)[S+]([O-])c1ccccc1)C(=O)N[C@H](C=O)C[C@@H]1CCNC1=O (stereo partly drawn) [Compound D3c] | 1140 ± 80 | > 10000 | > 50000 | 
12 | CC(C)C[C@H](NC(=O)OCC(C)(C)[S+]([O-])c1ccccc1)C(=O)N[C@@H](C[C@@H]1CCNC1=O)C(O)S(=O)(=O)O (stereo partly drawn) [Compound D3d] | 1050 ± 210 | > 10000 | > 50000 | 
13 | CC(C)C[C@H](NC(=O)OCC(C)(C)S(=O)(=O)c1ccccc1)C(=O)N[C@H](C=O)C[C@@H]1CCNC1=O [Compound D4c] | 900 ± 280 | > 10000 | > 50000 | 
14 | CC(C)C[C@H](NC(=O)OCC(C)(C)S(=O)(=O)c1ccccc1)C(=O)N[C@@H](C[C@@H]1CCNC1=O)C(O)S(=O)(=O)O (stereo partly drawn) [Compound D4d] | 650 ± 90 | > 10000 | > 50000 | 
15 | CC(C)C[C@H](NC(=O)OCC(C)(C)Sc1cccc(F)c1)C(=O)N[C@H](C=O)C[C@@H]1CCNC1=O [Compound D5c] | 3150 ± 490 | 1000 ± 280 | > 50000 | 
16 | CC(C)C[C@H](NC(=O)OCC(C)(C)Sc1ccc(F)cc1)C(=O)N[C@H](C=O)C[C@@H]1CCNC1=O [Compound D6c] | 910 ± 150 | 5150 ± 640 | > 50000 | 
17 | CC(C)C[C@H](NC(=O)OCC(C)(C)Sc1ccc(F)cc1)C(=O)N[C@@H](C[C@@H]1CCNC1=O)C(O)S(=O)(=O)O (stereo partly drawn) [Compound D6d] | 980 ± 110 | 5850 ± 350 | > 50000 | 
18 | CC(C)C[C@H](NC(=O)OCC(C)(C)Sc1cccc(Cl)c1)C(=O)N[C@H](C=O)C[C@@H]1CCNC1=O [Compound D7c] | 1500 ± 280 | 1050 ± 210 | > 50000 | 
19 | CC(C)C[C@H](NC(=O)OCC(C)(C)Sc1cccc(Cl)c1)C(=O)N[C@@H](C[C@@H]1CCNC1=O)C(O)S(=O)(=O)O (stereo partly drawn) [Compound D7d] | 600 ± 10 | 1200 ± 140 | > 50000 | 
20 | CC(C)C[C@H](NC(=O)OCCSc1ccccc1)C(=O)N[C@H](C=O)C[C@@H]1CCNC1=O [Compound D8c] | 1350 ± 350 | 1750 ± 210 | > 50000 | 
21 | CC(C)C[C@H](NC(=O)OCCSc1ccccc1)C(=O)N[C@@H](C[C@@H]1CCNC1=O)C(O)S(=O)(=O)O (stereo partly drawn) [Compound D8d] | 1030 ± 240 | 1950 ± 220 | > 50000 | 
22 | CC(C)C[C@H](NC(=O)OCC(C)(C)Sc1nc2ccccc2[nH]1)C(=O)N[C@H](C=O)C[C@@H]1CCNC1=O [Compound D9c] | 2150 ± 340 | > 10000 | > 50000 | 
23 | CC(C)C[C@H](NC(=O)OCC(C)(C)Sc1nc2ccccc2[nH]1)C(=O)N[C@@H](C[C@@H]1CCNC1=O)C(O)S(=O)(=O)O (stereo partly drawn) [Compound D9d] | 1750 ± 920 | > 10000 | > 50000 | 

Row | Compound | IC50 (FMDV 3Cpro [1]) [nM] | EC50 (FMDV 3Cpro [2]) [nM] | CC50 (in vitro) [nM] | replication of FMDV in cell culture via inhibiting 3Cpro (FMDV)
24 | CC(C)C[C@H](NC(=O)OCC(C)(C)Oc1ccc(Cl)cc1)C(=O)N[C@H](C=O)C[C@@H]1CCNC1=O [Compound D11c] | 690 ± 60 | 640 ± 150 | > 50000 | 
25 | CC(C)C[C@H](NC(=O)OCC(C)(C)Oc1ccc(Cl)cc1)C(=O)N[C@@H](C[C@@H]1CCNC1=O)C(O)S(=O)(=O)O (stereo partly drawn) [Compound D11d] | 490 ± 50 | 980 ± 1110 | > 50000 | 
26 | [2H]C([2H])(OC(=O)N[C@@H](CC(C)C)C(=O)N[C@H](C=O)C[C@@H]1CCNC1=O)C(C)(C)Oc1ccc(Cl)cc1 [Compound D12c] | 140 ± 20 | 350 ± 100 | > 50000 | 
27 | [2H]C([2H])(OC(=O)N[C@@H](CC(C)C)C(=O)N[C@@H](C[C@@H]1CCNC1=O)C(O)S(=O)(=O)[O-])C(C)(C)Oc1ccc(Cl)cc1.[Na+] (stereo partly drawn) [Compound D12d] | 190 ± 10 | 430 ± 310 | > 50000 | 
28 | CC(C)C[C@H](NC(=O)OCC(C)(C)Oc1cccc(Cl)c1)C(=O)N[C@H](C=O)C[C@@H]1CCNC1=O [Compound D13c] | 670 ± 80 | 5340 ± 1190 | > 50000 | 
29 | CC(C)C[C@H](NC(=O)OCC(C)(C)Oc1cccc(Cl)c1)C(=O)N[C@@H](C[C@@H]1CCNC1=O)C(O)S(=O)(=O)O (stereo partly drawn) [Compound D13d] | 650 ± 210 | 7700 ± 850 | > 50000 | 
30 | [2H]C([2H])(OC(=O)N[C@@H](CC(C)C)C(=O)N[C@H](C=O)C[C@@H]1CCNC1=O)C(C)(C)Oc1cccc(Cl)c1 [Compound D14c] | 500 ± 140 | 3380 ± 390 | > 50000 | 
31 | [2H]C([2H])(OC(=O)N[C@@H](CC(C)C)C(=O)N[C@@H](C[C@@H]1CCNC1=O)C(O)S(=O)(=O)[O-])C(C)(C)Oc1cccc(Cl)c1.[Na+] (stereo partly drawn) [Compound D14d] | 650 ± 70 | 4810 ± 3060 | > 50000 | 
32 | CC(C)C[C@H](NC(=O)OCC(C)(C)Oc1ccc(F)cc1)C(=O)N[C@H](C=O)C[C@@H]1CCNC1=O [Compound D15c] | 450 ± 70 | 5250 ± 640 | > 50000 | 
33 | CC(C)C[C@H](NC(=O)OCC(C)(C)Oc1ccc(F)cc1)C(=O)N[C@@H](C[C@@H]1CCNC1=O)C(O)S(=O)(=O)O (stereo partly drawn) [Compound D15d] | 550 ± 70 | 5900 ± 580 | > 50000 | 
34 | CC(C)C[C@H](NC(=O)OCC(C)(C)Oc1cccc(F)c1)C(=O)N[C@H](C=O)C[C@@H]1CCNC1=O [Compound D16c] | 780 ± 30 | 4900 ± 370 | > 50000 | 
35 | CC(C)C[C@H](NC(=O)OCC(C)(C)Oc1cccc(F)c1)C(=O)N[C@@H](C[C@@H]1CCNC1=O)C(O)S(=O)(=O)O (stereo partly drawn) [Compound D16d] | 690 ± 20 | 5050 ± 210 | > 50000 | 
36 | CC(C)C[C@H](NC(=O)[C@H](Cc1cccc2ccccc12)NC(=O)OCc1ccccc1)C(=O)N[C@H](C=O)C[C@@H]1CCNC1=O [Compound E1] | 50 ± 80 | 110 ± 50 | > 50000 | 
37 | CC(C)C[C@H](NC(=O)[C@H](Cc1cccc2ccccc12)NC(=O)OCc1ccccc1)C(=O)N[C@@H](C[C@@H]1CCNC1=O)C(=O)C(=O)NC(C)C [Compound E6] | 60 ± 60 | 150 ± 70 | > 50000 | 
38 | CC(C)C[C@H](NC(=O)OCc1ccccc1)C(=O)N[C@@H](C[C@@H]1CCNC1=O)C(=O)C(=O)NC1CC1 [Compound E6b] | 2400 ± 90 | 8800 ± 300 | > 50000 | 
39 | CCCCNC(=O)C(=O)[C@H](C[C@@H]1CCNC1=O)NC(=O)[C@H](CC(C)C)NC(=O)OCc1ccccc1 [Compound E6c] | 2100 ± 70 | 7000 ± 500 | > 50000 | 
40 | CCOC(=O)CNC(=O)C(=O)[C@H](C[C@@H]1CCNC1=O)NC(=O)[C@H](CC(C)C)NC(=O)OCc1ccccc1 [Compound E6d] | 2200 ± 50 | 9200 ± 100 | > 50000 | 
41 | CC(C)C[C@H](NC(=O)OCc1ccccc1)C(=O)N[C@@H](C[C@@H]1CCNC1=O)C(=O)C(=O)NC(C)(C)C [Compound E6g] | 1500 ± 100 | 5800 ± 300 | > 50000 | 
42 | CC(C)C[C@H](NC(=O)OCc1ccccc1)C(=O)N[C@@H](C[C@@H]1CCNC1=O)C(=O)c1ncco1 [Compound E8a] | 3400 ± 80 | 8200 ± 90 | > 50000 | 
43 | CC(C)C[C@H](NC(=O)OCc1ccccc1)C(=O)N[C@H](C=O)C[C@@H]1CCNC1=O [GC373] | 2300 ± 70 | 6600 ± 200 | > 50000 | 
44 | N#Cc1cc(-c2ccccc2)[nH]c1-c1nccc2ccccc12 [NSC116640] |  |  |  | inhibited the replication of FMDV in cell culture
45 | Oc1ccccc1-c1nc2c3ccccc3c3ccccc3c2[nH]1 [NSC332670] |  |  |  | inhibited the replication of FMDV in cell culture
46 | COc1ccc(-c2cc(=O)c3c(O)cc(O)c(-c4cc(-c5cc(=O)c6c(O)cc(O)cc6o5)ccc4OC)c3o2)cc1 [isoginkgetin] |  |  |  | inhibited the replication of FMDV in cell culture
